Laboratory results published in USRE49575E1, “Method for the preparation of (4S)-4-(4-cyano-2-methoxyphenyl)-5-ethoxy-2,8-dimethyl-l,4-dihydro-1-6-naphthyridine-3-carbox-amide and the purification thereof for use as an active pharmaceutical ingredient” (Bayer Pharma Aktiengesellschaft, priority 2014, dated 2023).

Legend:
Assay type in all cases: physicochemical
[1] = Storage stability of polymorph I
[2] = TGA, loss of mass on heating; conditions: up to a temperature of 175° C.
Procedure: No other phase transitions were observed. A loss of mass of ca. 0.1% was observed up to a temperature of 175° C.

[3] = Stability and moisture absorption: storage at 85% and 97% rel. humidity, evaluated by DSC, TGA and XRPD; conditions: for mass change: after 12 months
Procedure: Stability and Moisture Absorption Samples of compound of the formula (I) in crystalline form of polymorph I were stored at 85% and 97% rel. humidity (25° C.). The samples were evaluated after 12 months by DSC, TGA and XRPD. After 12 months, a mass change of <0.1% is observed in both cases. […] According to DSC, TGA and XRPD, no difference exists in compound of the formula (I) in crystalline form of polymorph I.

[4] = 85% and 97% rel. humidity (25° C.), 12 months

With `CCOc1ncc(C)c2c1[C@H](c1ccc(C#N)cc1OC)C(C(N)=O)=C(C)N2` [(4S)-4-(4-cyano-2-methoxyphenyl)-5-ethoxy-2,8-dimethyl-1,4-dihydro-1,6-naphthyridine-3-carboxamide] the stability properties ([1]; even at high atmospheric humidity) was “very good stability properties”, the “storage time without any problem” value ([1]; solid, crystalline polymorph I) was over 2 years and the loss of mass [2] was “ca. 0.1%”. For the same compound, the absorption of water [3, 4] was “no significant absorption of water”, the “difference according to DSC, TGA and XRPD after storage” value [3, 4] was “no difference” and the mass change ([3]; stored at 85% rel. humidity (25° C.)) was under 0.1%. The mass change ([3]; stored at 97% rel. humidity (25° C.)) was under 0.1%.
